Source: patent US10618918B2, “Substituted boronic acids as antimicrobials” (priority 2015, dated 2020)
Read-outs that look alike come from different tables or passages of the source.

Columns and labels:
[1] = tested on: KP1004 KPC-2; experiment: Biapenem potentiation (MPC@1), strain KP1004 KPC-2; format: cell-based; settings: minimum BLI concentration inhibiting growth with biapenem 1 μg/mL; tested up to 40 μg/mL
Protocol: (§1) Biapenem was present in the test medium at 1 μg/mL. […] Table 3 summarizes the BLI potency of biapenem potentiation (MPC@1) for two strains overexpressing class A (KPC) and class D (OXA-48) carbapenemases. Biapenem MIC for each strain is also shown.

[2] = tested on: AB1053 OXA-72; experiment: Meropenem potentiation (MPC@8), strain AB1053 OXA-72; format: cell-based, Acinetobacter baumannii; settings: for MPM MPC8 AB1053 OXA-72: minimum BLI concentration inhibiting growth with meropenem 8 μg/mL, tested up to 20 μg/mL
[3] = tested on: EC1010 CMY-6; experiment: Aztreonam potentiation (MPC@4), strain EC1010 CMY-6; settings: minimum BLI concentration inhibiting growth with aztreonam 4 μg/mL; tested up to 40 μg/mL
[4] = tested on: KP1010 SHV-12; experiment: Aztreonam potentiation (MPC@4), strain KP1010 SHV-12; settings: minimum BLI concentration inhibiting growth with aztreonam 4 μg/mL; tested up to 40 μg/mL
[5] = tested on: ec302 TEM-10; experiment: Aztreonam potentiation (MPC@4), strain ec302 TEM-10; settings: minimum BLI concentration inhibiting growth with aztreonam 4 μg/mL; tested up to 40 μg/mL
[6] = tested on: KP1009 CTX-M-15; experiment: Aztreonam potentiation (MPC@4), strain KP1009 CTX-M-15; settings: minimum BLI concentration inhibiting growth with aztreonam 4 μg/mL; tested up to 40 μg/mL
[7] = tested on: AB1054 OXA-23; experiment: Meropenem potentiation (MPC@8), strain AB1054 OXA-23; format: cell-based, Acinetobacter baumannii; settings: for MPM MPC8 AB1054 OXA-23: minimum BLI concentration inhibiting growth with meropenem 8 μg/mL, tested up to 20 μg/mL
[8] = tested on: ec308 SHV-5; experiment: Aztreonam potentiation (MPC@4), strain ec308 SHV-5; settings: minimum BLI concentration inhibiting growth with aztreonam 4 μg/mL; tested up to 40 μg/mL
[9] = tested on: ECL1002; experiment: Aztreonam potentiation (MPC@4), strain ECL1002; settings: minimum BLI concentration inhibiting growth with aztreonam 4 μg/mL; tested up to 40 μg/mL
[10] = tested on: KP1086 OXA-48; experiment: Biapenem potentiation (MPC@1), strain KP1086 OXA-48; format: cell-based; settings: minimum BLI concentration inhibiting growth with biapenem 1 μg/mL; tested up to 40 μg/mL
Protocol: as §1

[11] = target: purified class A, C and D enzymes (β-lactamases) (Enterobacter cloacae, UniProt P05364); experiment: biochemical; format: biochemical
[12] = target: purified class A, C and D enzymes (β-lactamases) (Klebsiella pneumoniae, UniProt Q9F663); experiment: biochemical; format: biochemical
[13] = target: purified class A, C and D enzymes (β-lactamases) (Klebsiella pneumoniae, UniProt Q6XEC0); experiment: biochemical; format: biochemical
[14] = target: T1, purified class A, C and D enzymes (β-lactamases) (Pseudomonas aeruginosa, UniProt P24735); experiment: biochemical; format: biochemical
T1 construct: rows headed: Ki (Pa-AmpC, NCF), uM; other: purified Pa-AmpC; nitrocefin (NCF) as reporter substrate

[15] = target: T2, purified class A, C and D enzymes (β-lactamases) (Acinetobacter baumannii, UniProt Q9L4P2); experiment: biochemical; format: biochemical; settings: purified OXA-23; nitrocefin (NCF) as reporter substrate
T2 construct: rows headed: Ki (OXA-23, NCF), uM; other: purified OXA-23; nitrocefin (NCF) as reporter substrate

[16] = tested on: KP1004 KPC-2; experiment: Aztreonam potentiation (MPC@4), strain KP1004 KPC-2; settings: minimum BLI concentration inhibiting growth with aztreonam 4 μg/mL; tested up to 40 μg/mL
[17] = tested on: KP1005 CTX-M-14; experiment: Tigemonam potentiation (MPC@4), strain KP1005 CTX-M-14; settings: minimum BLI concentration inhibiting growth with tigemonam 4 μg/mL; tested up to 40 μg/mL
[18] = purified KPC-2, nitrocefin (NCF) as reporter substrate
[19] = purified OXA-48, nitrocefin (NCF) as reporter substrate

SMILES	BPM MPC1 KP1004 KPC-2 [1]	MPM MPC8 AB1053 OXA-72 [2]	AZT MPC4 CMY-6 EC1010 [3]	AZT MPC4 SHV-12 KP1010 [4]	AZT MPC4 TEM-10 ec302 [5]	AZT MPC4 CTX-M-15 KP1009 [6]	MPM MPC8 AB1054 OXA-23 [7]	AZT MPC4 SHV-5 ec308 [8]	AZT MPC4 ECL1002 [9]	BPM MPC1 OXA-48 KP1086 [10]	Ki (KPC-2, NCF), uM [12, 18]	Ki (OXA-48, NCF), uM [13, 19]	Ki [15] [nM]	AZT MPC4 KPC-2 KP1004 [16]	TIG MPC4 CTX-M-14 KP1005 [17]	Ki (P99, NCF), uM [11]	Ki [14] [nM]	further results
O=C(O)c1c(OCC2OCCO2)ccc2c1OB(O)CC2 [Compound 26, 7-(1,3-Dioxolan-2-ylmethoxy)-2-hydroxy-3,4-dihydro-1,2-benzoxaborinine-8-carboxylic acid]	X (X = MPC@1 ≤ 5 μg/mL)	X (X = MPC@1 ≤ 5 μg/mL)	X (X = MPC@4 ≤ 5 μg/mL)	X (X = MPC@4 ≤ 5 μg/mL)	Y (Y = 5 μg/mL < MPC@4 ≤ 20 μg/mL)	Y (Y = 5 μg/mL < MPC@4 ≤ 20 μg/mL)	Y (Y = 5 μg/mL < MPC@1 ≤ 20 μg/mL)	Y (Y = 5 μg/mL < MPC@4 ≤ 20 μg/mL)	X (X = MPC@4 ≤ 5 μg/mL)	X (X = MPC@1 ≤ 5 μg/mL)	X (X = Ki ≤ 0.1 μM)	X (X = Ki ≤ 0.1 μM)	< 100	X (X = MPC@4 ≤ 5 μg/mL)	Z (Z = MPC@4 > 20 μg/mL)			Ki (P99, NCF), uM ([11]; purified P99, nitrocefin (NCF) as reporter substrate): X (X = Ki ≤ 0.1 μM); Ki ([14]; purified Pa-AmpC, nitrocefin (NCF) as reporter substrate, read-out: Ki (Pa-AmpC, NCF)): < 100 nM
O=C([O-])c1c(OCC#CCO)ccc2c1O[B-](O)(O)CC2.[Na+].[Na+] [Compound 30, Disodium; 4,4-dihydroxy-8-(4-hydroxybut-2-ynoxy)-5-oxa-4-boranuidabicyclo[4.4.0]deca-1(6),7,9-triene-7-carboxylate]	X (X = MPC@1 ≤ 5 μg/mL)	X (X = MPC@1 ≤ 5 μg/mL)	X (X = MPC@4 ≤ 5 μg/mL)	X (X = MPC@4 ≤ 5 μg/mL)	X (X = MPC@4 ≤ 5 μg/mL)	X (X = MPC@4 ≤ 5 μg/mL)	X (X = MPC@1 ≤ 5 μg/mL)	X (X = MPC@4 ≤ 5 μg/mL)	X (X = MPC@4 ≤ 5 μg/mL)	Y (Y = 5 μg/mL < MPC@1 ≤ 20 μg/mL)	X (X = Ki ≤ 0.1 μM)	X (X = Ki ≤ 0.1 μM)	< 100	X (X = MPC@4 ≤ 5 μg/mL)	Y (Y = 5 μg/mL < MPC@4 ≤ 20 μg/mL)	X (key: X = Ki ≤ 0.1 μM; Y = 0.1 μM < Ki ≤ 1 μM; Z = Ki > 1 μM)	< 100	
COCC#CCOc1ccc2c(c1C(=O)[O-])O[B-](O)(O)CC2.[Na+].[Na+] [Compound 31, Disodium; 4,4-dihydroxy-8-(4-methoxybut-2-ynoxy)-5-oxa-4-boranuidabicyclo[4.4.0]deca-1(6),7,9-triene-7-carboxylate]	X (X = MPC@1 ≤ 5 μg/mL)	X (X = MPC@1 ≤ 5 μg/mL)	X (X = MPC@4 ≤ 5 μg/mL)	X (X = MPC@4 ≤ 5 μg/mL)	Y (Y = 5 μg/mL < MPC@4 ≤ 20 μg/mL)	Y (Y = 5 μg/mL < MPC@4 ≤ 20 μg/mL)	X (X = MPC@1 ≤ 5 μg/mL)	X (X = MPC@4 ≤ 5 μg/mL)	X (X = MPC@4 ≤ 5 μg/mL)	X (X = MPC@1 ≤ 5 μg/mL)	X (X = Ki ≤ 0.1 μM)	X (X = Ki ≤ 0.1 μM)	< 100	X (X = MPC@4 ≤ 5 μg/mL)	Y (Y = 5 μg/mL < MPC@4 ≤ 20 μg/mL)	X (key: X = Ki ≤ 0.1 μM; Y = 0.1 μM < Ki ≤ 1 μM; Z = Ki > 1 μM)	< 100	
C[S+]([O-])c1ccc2c(c1C(=O)[O-])O[B-](O)(O)CC2.[Na+].[Na+] (stereo not drawn) [Compound 40, Disodium; 4,4-dihydroxy-8-methylsulfinyl-5-oxa-4-boranuidabicyclo[4.4.0]deca-1(6),7,9-triene-7-carboxylate]	X (X = MPC@1 ≤ 5 μg/mL)	Z (Z = MPC@1 > 20 μg/mL)	X (X = MPC@4 ≤ 5 μg/mL)	X (X = MPC@4 ≤ 5 μg/mL)	X (X = MPC@4 ≤ 5 μg/mL)	X (X = MPC@4 ≤ 5 μg/mL)	Z (Z = MPC@1 > 20 μg/mL)	X (X = MPC@4 ≤ 5 μg/mL)	X (X = MPC@4 ≤ 5 μg/mL)	X (X = MPC@1 ≤ 5 μg/mL)	X (X = Ki ≤ 0.1 μM)	X (X = Ki ≤ 0.1 μM)		X (X = MPC@4 ≤ 5 μg/mL)	X (X = MPC@4 ≤ 5 μg/mL)	X (key: X = Ki ≤ 0.1 μM; Y = 0.1 μM < Ki ≤ 1 μM; Z = Ki > 1 μM)	< 100	
C[C@@H](O)[C@H]1C(=O)N2C(C(=O)O)=C(S[C@@H]3CN[C@H](C(=O)N(C)C)C3)[C@H](C)[C@H]12 [Meropenem, reference compound]																		MIC ([2]; Acinetobacter baumannii, strain AB1053 OXA-72, meropenem alone): > 64 µg/mL; MIC ([7]; Acinetobacter baumannii, strain AB1054 OXA-23, meropenem alone): 32 µg/mL
C[C@]1(Cn2ccnn2)[C@H](C(=O)O)N2C(=O)C[C@H]2S1(=O)=O [Tazobactam, reference compound]	Z (Z = MPC@1 > 20 μg/mL)		Y (Y = 5 μg/mL < MPC@4 ≤ 20 μg/mL)	X (X = MPC@4 ≤ 5 μg/mL)	X (X = MPC@4 ≤ 5 μg/mL)	Y (Y = 5 μg/mL < MPC@4 ≤ 20 μg/mL)		Y (Y = 5 μg/mL < MPC@4 ≤ 20 μg/mL)	Z (Z = MPC@4 > 20 μg/mL)	Y (Y = 5 μg/mL < MPC@1 ≤ 20 μg/mL)				Z (Z = MPC@4 > 20 μg/mL)	Y (Y = 5 μg/mL < MPC@4 ≤ 20 μg/mL)			Ki (KPC-2, NCF), uM [12]: Z (key: X = Ki ≤ 0.1 μM; Y = 0.1 μM < Ki ≤ 1 μM; Z = Ki > 1 μM); Ki (OXA-48, NCF), uM [13]: Y (key: X = Ki ≤ 0.1 μM; Y = 0.1 μM < Ki ≤ 1 μM; Z = Ki > 1 μM)
